The values below come from ChEMBL document CHEMBL5291721, “A preclinical secondary pharmacology resource illuminates target-adverse drug reaction associations of marketed drugs” (Nat Commun, 2023).

One assay concerns the target T1, Thromboxane A2 receptor (Homo sapiens, UniProt P21731).
T1 sequence (P21731 whole entry): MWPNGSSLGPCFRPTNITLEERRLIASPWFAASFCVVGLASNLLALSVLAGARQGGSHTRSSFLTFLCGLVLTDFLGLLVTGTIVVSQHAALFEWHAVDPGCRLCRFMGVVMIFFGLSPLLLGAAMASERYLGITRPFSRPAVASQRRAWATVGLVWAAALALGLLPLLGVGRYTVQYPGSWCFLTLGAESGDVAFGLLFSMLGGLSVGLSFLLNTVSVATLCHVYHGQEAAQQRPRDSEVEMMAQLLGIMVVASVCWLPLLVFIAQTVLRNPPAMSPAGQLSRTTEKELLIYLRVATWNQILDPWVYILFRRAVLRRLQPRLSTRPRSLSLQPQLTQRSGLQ
The assay is classed as functional, cell-based.

The target in assay [1] is T2, 5-hydroxytryptamine receptor 1A (Homo sapiens, UniProt P08908).
T2 sequence (P08908 whole entry): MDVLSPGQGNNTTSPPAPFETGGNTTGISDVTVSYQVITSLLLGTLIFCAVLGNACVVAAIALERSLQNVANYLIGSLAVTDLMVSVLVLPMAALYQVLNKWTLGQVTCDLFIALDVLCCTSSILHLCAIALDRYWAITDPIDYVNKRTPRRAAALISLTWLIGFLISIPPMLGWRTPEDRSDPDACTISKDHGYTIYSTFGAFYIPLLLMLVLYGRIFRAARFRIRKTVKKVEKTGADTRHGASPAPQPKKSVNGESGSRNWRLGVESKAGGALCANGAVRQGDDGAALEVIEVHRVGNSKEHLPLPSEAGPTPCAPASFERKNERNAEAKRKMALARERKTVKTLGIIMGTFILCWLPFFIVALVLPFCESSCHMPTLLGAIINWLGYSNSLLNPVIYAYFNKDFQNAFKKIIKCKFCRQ

Assay [2] concerns the target T3, Muscarinic acetylcholine receptor M1 (Homo sapiens, UniProt P11229).
T3 sequence (P11229 whole entry): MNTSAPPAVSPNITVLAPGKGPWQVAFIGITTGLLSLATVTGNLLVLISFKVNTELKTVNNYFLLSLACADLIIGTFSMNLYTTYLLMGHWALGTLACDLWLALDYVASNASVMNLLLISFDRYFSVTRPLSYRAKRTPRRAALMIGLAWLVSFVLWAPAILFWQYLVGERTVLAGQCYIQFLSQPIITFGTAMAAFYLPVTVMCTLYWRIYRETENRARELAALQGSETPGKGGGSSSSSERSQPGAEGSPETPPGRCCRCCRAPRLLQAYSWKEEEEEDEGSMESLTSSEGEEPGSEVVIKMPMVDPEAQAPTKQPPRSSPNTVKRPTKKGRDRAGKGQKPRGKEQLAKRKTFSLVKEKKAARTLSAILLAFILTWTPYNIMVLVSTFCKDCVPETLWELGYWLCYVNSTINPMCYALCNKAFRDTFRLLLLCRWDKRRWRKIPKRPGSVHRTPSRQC
It counts as functional, cell-based.

A further assay has as its target T4, Androgen receptor (Homo sapiens, UniProt P10275).
T4 sequence (P10275 whole entry): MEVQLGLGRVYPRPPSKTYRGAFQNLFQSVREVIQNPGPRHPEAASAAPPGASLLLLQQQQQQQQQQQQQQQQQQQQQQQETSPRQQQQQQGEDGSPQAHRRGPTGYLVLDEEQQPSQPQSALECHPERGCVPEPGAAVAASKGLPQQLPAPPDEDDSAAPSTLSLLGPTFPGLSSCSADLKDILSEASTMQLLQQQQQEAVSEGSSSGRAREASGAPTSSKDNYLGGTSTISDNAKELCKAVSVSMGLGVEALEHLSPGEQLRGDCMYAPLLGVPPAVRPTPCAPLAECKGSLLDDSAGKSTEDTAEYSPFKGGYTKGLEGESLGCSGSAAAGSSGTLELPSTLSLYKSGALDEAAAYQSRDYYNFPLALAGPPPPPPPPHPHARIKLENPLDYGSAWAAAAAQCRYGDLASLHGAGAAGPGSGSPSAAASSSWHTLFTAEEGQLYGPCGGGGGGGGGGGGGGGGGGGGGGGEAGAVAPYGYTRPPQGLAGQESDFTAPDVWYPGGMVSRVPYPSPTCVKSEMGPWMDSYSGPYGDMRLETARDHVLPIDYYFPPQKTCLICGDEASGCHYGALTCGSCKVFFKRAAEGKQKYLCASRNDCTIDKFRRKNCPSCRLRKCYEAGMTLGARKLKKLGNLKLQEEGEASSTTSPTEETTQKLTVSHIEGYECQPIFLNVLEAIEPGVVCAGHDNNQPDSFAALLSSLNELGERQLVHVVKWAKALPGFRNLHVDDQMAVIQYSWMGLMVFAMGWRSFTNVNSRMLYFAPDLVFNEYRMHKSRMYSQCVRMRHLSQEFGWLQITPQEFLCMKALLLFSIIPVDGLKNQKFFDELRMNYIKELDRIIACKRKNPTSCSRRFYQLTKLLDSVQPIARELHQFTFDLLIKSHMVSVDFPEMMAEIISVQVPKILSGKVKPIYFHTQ

For the next assay, the target named is T5, Estrogen receptor (Homo sapiens, UniProt P03372).
T5 sequence (P03372 whole entry): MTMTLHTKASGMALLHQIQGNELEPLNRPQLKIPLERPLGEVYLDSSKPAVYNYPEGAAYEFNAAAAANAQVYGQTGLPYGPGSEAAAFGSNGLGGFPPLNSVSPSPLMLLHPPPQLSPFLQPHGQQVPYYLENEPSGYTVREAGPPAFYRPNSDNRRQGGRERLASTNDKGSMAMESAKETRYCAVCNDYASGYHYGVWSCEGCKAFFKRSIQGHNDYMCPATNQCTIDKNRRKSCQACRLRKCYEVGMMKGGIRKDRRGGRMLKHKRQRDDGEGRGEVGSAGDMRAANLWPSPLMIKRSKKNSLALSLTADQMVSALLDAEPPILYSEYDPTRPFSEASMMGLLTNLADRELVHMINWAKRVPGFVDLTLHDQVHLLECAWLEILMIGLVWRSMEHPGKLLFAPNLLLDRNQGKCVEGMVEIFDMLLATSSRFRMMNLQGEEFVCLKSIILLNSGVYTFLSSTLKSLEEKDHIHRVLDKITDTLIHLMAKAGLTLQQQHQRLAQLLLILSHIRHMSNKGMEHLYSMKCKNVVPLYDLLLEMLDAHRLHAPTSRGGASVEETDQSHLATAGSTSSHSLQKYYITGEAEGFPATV

Assay [3] deals with Gamma-aminobutyric acid receptor subunit alpha-1/alpha-2/beta-2/gamma-2 (Homo sapiens, UniProt P14867+P18507+P47869+P47870). The assay is classed as protein-complex assay.
Sequence of Gamma-aminobutyric acid receptor subunit alpha-1/alpha-2/beta-2/gamma-2 (P14867 whole entry): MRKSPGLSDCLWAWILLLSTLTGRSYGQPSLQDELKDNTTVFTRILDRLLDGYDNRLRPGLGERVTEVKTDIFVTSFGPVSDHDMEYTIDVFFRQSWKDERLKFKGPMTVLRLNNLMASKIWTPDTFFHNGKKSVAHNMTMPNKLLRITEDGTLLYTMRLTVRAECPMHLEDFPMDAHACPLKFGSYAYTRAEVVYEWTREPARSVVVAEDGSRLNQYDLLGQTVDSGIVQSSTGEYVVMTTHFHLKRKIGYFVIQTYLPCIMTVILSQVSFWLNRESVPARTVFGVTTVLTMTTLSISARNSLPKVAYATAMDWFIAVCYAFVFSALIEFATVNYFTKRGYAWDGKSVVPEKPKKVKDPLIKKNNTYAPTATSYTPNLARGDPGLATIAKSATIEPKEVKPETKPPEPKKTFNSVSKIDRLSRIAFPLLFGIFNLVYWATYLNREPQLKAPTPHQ
Sequence of Gamma-aminobutyric acid receptor subunit alpha-1/alpha-2/beta-2/gamma-2 (P47870 whole entry): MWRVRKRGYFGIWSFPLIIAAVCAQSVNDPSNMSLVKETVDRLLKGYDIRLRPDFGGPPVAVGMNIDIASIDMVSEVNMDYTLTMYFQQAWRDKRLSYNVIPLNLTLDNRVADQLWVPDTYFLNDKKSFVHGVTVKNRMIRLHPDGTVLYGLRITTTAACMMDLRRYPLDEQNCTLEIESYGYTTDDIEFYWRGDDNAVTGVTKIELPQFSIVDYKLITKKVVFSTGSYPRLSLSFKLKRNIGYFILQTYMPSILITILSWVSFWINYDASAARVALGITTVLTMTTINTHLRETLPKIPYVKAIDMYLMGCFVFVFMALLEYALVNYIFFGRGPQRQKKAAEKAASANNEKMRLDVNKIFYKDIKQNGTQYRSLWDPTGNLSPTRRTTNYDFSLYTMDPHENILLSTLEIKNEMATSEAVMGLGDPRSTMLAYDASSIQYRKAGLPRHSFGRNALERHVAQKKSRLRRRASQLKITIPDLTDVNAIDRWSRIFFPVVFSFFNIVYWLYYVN
Sequence of Gamma-aminobutyric acid receptor subunit alpha-1/alpha-2/beta-2/gamma-2 (P18507 whole entry): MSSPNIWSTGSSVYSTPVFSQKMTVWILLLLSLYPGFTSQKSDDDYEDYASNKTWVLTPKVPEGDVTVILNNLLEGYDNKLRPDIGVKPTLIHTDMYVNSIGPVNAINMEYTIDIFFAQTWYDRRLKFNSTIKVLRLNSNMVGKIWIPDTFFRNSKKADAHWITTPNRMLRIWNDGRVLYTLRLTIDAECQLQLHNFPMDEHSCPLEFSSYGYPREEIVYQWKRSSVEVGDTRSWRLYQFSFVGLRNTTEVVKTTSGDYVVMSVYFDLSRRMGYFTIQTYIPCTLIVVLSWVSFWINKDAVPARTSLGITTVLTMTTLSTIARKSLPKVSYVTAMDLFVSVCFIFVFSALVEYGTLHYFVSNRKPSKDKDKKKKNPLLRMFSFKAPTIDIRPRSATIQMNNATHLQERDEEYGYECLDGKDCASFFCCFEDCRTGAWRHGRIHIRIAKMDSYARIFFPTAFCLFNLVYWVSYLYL
Sequence of Gamma-aminobutyric acid receptor subunit alpha-1/alpha-2/beta-2/gamma-2 (P47869 whole entry): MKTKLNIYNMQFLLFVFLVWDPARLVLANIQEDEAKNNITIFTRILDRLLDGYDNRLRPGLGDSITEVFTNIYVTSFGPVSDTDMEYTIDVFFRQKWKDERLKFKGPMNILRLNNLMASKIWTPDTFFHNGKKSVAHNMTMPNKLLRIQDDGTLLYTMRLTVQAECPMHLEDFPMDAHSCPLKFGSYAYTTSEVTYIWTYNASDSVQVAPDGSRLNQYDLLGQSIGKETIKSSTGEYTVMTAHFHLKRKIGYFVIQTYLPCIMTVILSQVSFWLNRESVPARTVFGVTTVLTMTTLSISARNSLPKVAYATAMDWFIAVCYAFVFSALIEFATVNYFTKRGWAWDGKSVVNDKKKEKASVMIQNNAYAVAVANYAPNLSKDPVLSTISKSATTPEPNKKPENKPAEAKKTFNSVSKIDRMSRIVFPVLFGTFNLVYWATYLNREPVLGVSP
Assay [4] deals with Gamma-aminobutyric acid receptor subunit alpha-1 (Rattus norvegicus, UniProt P62813).
Sequence of Gamma-aminobutyric acid receptor subunit alpha-1 (P62813 whole entry): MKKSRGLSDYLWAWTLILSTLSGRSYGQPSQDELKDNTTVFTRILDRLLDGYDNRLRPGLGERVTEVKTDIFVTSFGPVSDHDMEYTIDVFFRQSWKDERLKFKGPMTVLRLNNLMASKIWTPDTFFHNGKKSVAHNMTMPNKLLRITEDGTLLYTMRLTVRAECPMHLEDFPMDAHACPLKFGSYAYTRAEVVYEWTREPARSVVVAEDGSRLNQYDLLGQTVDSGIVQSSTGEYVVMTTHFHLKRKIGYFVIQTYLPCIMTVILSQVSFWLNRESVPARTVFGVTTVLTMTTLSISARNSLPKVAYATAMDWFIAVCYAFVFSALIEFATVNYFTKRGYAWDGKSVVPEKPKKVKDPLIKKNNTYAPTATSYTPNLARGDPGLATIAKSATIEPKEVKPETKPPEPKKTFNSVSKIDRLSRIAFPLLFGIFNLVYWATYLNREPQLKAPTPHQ
For assay [5], the target named is Neuronal acetylcholine receptor subunit alpha-4 (Homo sapiens, UniProt P43681).
Sequence of Neuronal acetylcholine receptor subunit alpha-4 (P43681 whole entry): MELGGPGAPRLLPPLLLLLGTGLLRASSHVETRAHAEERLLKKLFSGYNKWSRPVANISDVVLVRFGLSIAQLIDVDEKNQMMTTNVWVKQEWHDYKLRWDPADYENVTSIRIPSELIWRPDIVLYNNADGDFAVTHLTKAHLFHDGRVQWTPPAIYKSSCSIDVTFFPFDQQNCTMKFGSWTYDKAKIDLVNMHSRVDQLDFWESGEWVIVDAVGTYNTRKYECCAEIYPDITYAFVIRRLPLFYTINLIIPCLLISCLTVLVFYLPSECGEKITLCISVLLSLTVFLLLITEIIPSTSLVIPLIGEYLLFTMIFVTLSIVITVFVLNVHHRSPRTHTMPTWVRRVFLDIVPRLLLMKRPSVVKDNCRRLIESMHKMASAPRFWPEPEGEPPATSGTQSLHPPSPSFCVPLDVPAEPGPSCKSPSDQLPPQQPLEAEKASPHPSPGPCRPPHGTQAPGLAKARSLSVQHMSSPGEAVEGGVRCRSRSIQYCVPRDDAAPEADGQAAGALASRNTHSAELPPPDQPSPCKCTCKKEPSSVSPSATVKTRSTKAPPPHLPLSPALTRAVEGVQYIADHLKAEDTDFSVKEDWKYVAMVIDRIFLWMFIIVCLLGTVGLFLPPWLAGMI
Note: assay procedure not described here.

Take `CC(=O)[C@@]1(O)CC[C@H]2[C@@H]3C=C(C)C4=CC(=O)CC[C@]4(C)[C@H]3CC[C@@]21C`: the AC50 (commonly the midpoint of the concentration-response curve, whichever way the signal moves) at Thromboxane A2 receptor is above 30 µM; in assay [1] it was above 30 µM; in assay [2] it was 15.3 µM; on Androgen receptor it was 0.0119 µM; on Estrogen receptor, above 30 µM; in assay [3], above 30 µM.

`CC(C)(C)N1CCC(c2ccccc2)(c2ccccc2)CC1` [BUDIPINE]: the AC50 on Thromboxane A2 receptor is above 30 µM; in assay [1], above 30 µM; in assay [2], 0.57 µM; on Androgen receptor it was above 30 µM; at Estrogen receptor it was above 30 µM; in assay [3], above 30 µM.

On to `NC1CCN(c2c(F)cc3c(=O)c(C(=O)O)cn(C4CC4)c3c2Cl)C1` (stereo not drawn) [CLINAFLOXACIN], for which the AC50 (at Thromboxane A2 receptor; in assay [1]; in assay [2]; on Androgen receptor; at Estrogen receptor; in assay [3]) was above 30 µM throughout.

`CCOc1ccc(Cc2cc([C@@H]3O[C@H](CO)[C@@H](O)[C@H](O)[C@H]3O)ccc2Cl)cc1` [DAPAGLIFLOZIN]: the AC50 (at Thromboxane A2 receptor; in assay [1]; in assay [2]; in assay [4]; at Androgen receptor; at Estrogen receptor) was above 30 µM in each case. Further, in assay [5], the AC50 is above 10 µM.

Regarding `CCOc1ccccc1C(N)=O` [ETHENZAMIDE], the AC50 (on Thromboxane A2 receptor; in assay [1]; in assay [2]; at Androgen receptor; on Estrogen receptor; in assay [3]) was above 30 µM in each case.

On to `CCOC(=O)/C=C1\SC(N2CCCCC2)C(=O)N1C` (stereo not drawn) [ETOZOLIN], for which the concentration at half-maximal activity (AC50) (on Thromboxane A2 receptor; in assay [1]; in assay [2]; at Androgen receptor; at Estrogen receptor; in assay [3]) was above 30 µM each time.

For `CCCCOC(=O)C(=O)[C@H]1[C@H](C)C[C@H]2[C@@H]3C[C@H](F)C4=CC(=O)C=C[C@]4(C)[C@H]3[C@@H](O)C[C@@]21C` [FLUOCORTIN BUTYL], the AC50 on Thromboxane A2 receptor was above 30 µM; in assay [1] it was above 30 µM; in assay [2], 19.8 µM; at Androgen receptor, 0.316 µM; at Estrogen receptor, above 30 µM; in assay [3], above 30 µM.

As for `N[C@H]1C(O)O[C@H](CO)[C@@H](O)[C@@H]1O` (stereo partly drawn) [GLUCOSAMINE], the AC50 (at Thromboxane A2 receptor; in assay [1]; in assay [2]; at Androgen receptor; on Estrogen receptor; in assay [3]) was above 30 µM in each case.

As to `COc1cc([C@@H]2c3cc4c(cc3[C@H](O)[C@H]3COC(=O)[C@H]23)OCO4)cc(OC)c1OC` [PODOFILOX], the concentration at half-maximal activity (AC50) (at Thromboxane A2 receptor; in assay [1]; at Androgen receptor; in assay [3]) was above 30 µM each time.

As for `Nc1ccc2cc3ccc(N)cc3nc2c1` [PROFLAVINE], the AC50 in assay [1] is 17.2 µM; on Androgen receptor it was above 30 µM; in assay [3], above 30 µM.

Take `O=C(Oc1ccc2c(c1)CCCN2C(=O)C(Cl)Cl)c1ccco1` [QUINFAMIDE]: the concentration at half-maximal activity (AC50) on Thromboxane A2 receptor is above 30 µM; in assay [1], above 30 µM; in assay [2] it was 15.4 µM; in assay [4], above 30 µM; at Androgen receptor, above 30 µM; at Estrogen receptor it was 20.3 µM.

Regarding `OB1OCc2cc(F)ccc21` [TAVABOROLE], the AC50 (at Thromboxane A2 receptor; in assay [1]; in assay [2]; on Androgen receptor; on Estrogen receptor; in assay [3]) was above 30 µM throughout.

Take `CC(C)(C)NCC(O)COc1cccc2c1SCCC2` (stereo not drawn) [TERTATOLOL]: the AC50 is above 30 µM at Thromboxane A2 receptor; 0.0569 µM in assay [1]; above 30 µM in assay [2]; above 30 µM on Androgen receptor; above 30 µM on Estrogen receptor; above 30 µM in assay [3].

For the molecule `Nc1ccc(S(=O)(=O)c2cnc(N)s2)cc1` [THIAZOLSULFONE], the AC50 (on Thromboxane A2 receptor; in assay [1]; in assay [2]; in assay [4]; at Androgen receptor; at Estrogen receptor) was above 30 µM throughout.

Take `CCCCS(=O)(=O)N[C@@H](Cc1ccc(OCCCCC2CCNCC2)cc1)C(=O)O` [TIROFIBAN]: the AC50 was above 10 µM on Thromboxane A2 receptor; above 30 µM in assay [1]; above 10 µM in assay [2]; above 30 µM in assay [4]; above 30 µM on Androgen receptor; above 30 µM on Estrogen receptor.

As to `CC(CNC(=O)c1ccccc1)C(=O)OCC(=O)[C@@]12OC(C)(C)O[C@@H]1C[C@H]1[C@@H]3CCC4=CC(=O)C=C[C@]4(C)[C@@]3(F)[C@@H](O)C[C@@]12C` (stereo partly drawn) [TRIAMCINOLONE BENETONIDE], the half-maximal activity concentration (AC50) (at Thromboxane A2 receptor; in assay [1]; in assay [2]; in assay [4]; at Androgen receptor; at Estrogen receptor) was above 30 µM each time.

`O=C(Nc1ccc(Cl)cc1)Nc1ccc(Cl)c(Cl)c1` [TRICLOCARBAN]: the AC50 is above 30 µM at Thromboxane A2 receptor; above 30 µM in assay [1]; 0.702 µM in assay [2]; above 30 µM in assay [4]; above 30 µM on Androgen receptor; above 30 µM on Estrogen receptor.
